Results taken from EP0726261A1, “Herbidical 1,2,4 thiadiazoles” (American Cyanamid Company, priority 1995, dated 1996).

Assays:
Assay type in all cases: in vivo
Glycine max [1] = test: Herbicidal activity, postemergence test (Example 66); details: post; 1000 g/ha; assessed visually twenty days after spraying
Description: (§1) To evaluate their herbicidal activity, compounds according to the invention are tested using a representative range of plants: ZEAMX Zea mays ORYSA Oryza sativa GLXMA Glycine max BEAVA Beta vulgaris LIUUT Linum usitatissimum AVEFA Avena fatua ECHCG Echinochloa crus-galli SINAL Sinapsis alba
(§2) The tests fall into two categories, preemergence and postemergence. The preemergence tests involve spraying a liquid formulation of the compound onto the soil in which the seeds of the plant species mentioned above have recently been sown. The postemergence tests involve spraying a liquid formulation of the compound onto seedling plants of the above species.
(§3) The soil used in the tests is a prepared horticultural loam.
(§4) The formulations used in the tests are prepared from solutions of the test compounds in acetone containing 0.4% by weight of an alkylphenol/ethylene oxide condensate available under the trademark TRITON X-155. These acetone solutions are diluted with water and the resulting formulations applied at dosage levels corresponding to 1000 g of active material per hectare in a volume equivalent to 900 litres per hectare.
(§5) In the preemergence tests, untreated sown soil, and in the postemergence tests, untreated soil bearing seedling plants, are used as controls.
(§6) The herbicidal effects of the test compounds are assessed visually twenty days after spraying the foliage and the soil and are recorded on a 0-9 scale. A rating of 0 indicates growth as untreated control, a rating of 9 indicates death. An increase of 1 unit on the linear scale approximates to an 11% increase in the level of effect.

Glycine max [2] = test: Herbicidal activity, preemergence test (Example 66); parameters: key: A rating of 0 indicates growth as untreated control; a rating of 9 indicates death; details: pre; 1000 g/ha; assessed visually twenty days after spraying
Description: as §1, §2, §3, §4, §5, §6

Avena fatua [3] = test: as above; parameters: key: A rating of 0 indicates growth as untreated control; a rating of 9 indicates death; details: pre; 1000 g/ha; assessed visually twenty days after spraying
Description: as §1, §2, §3, §4, §5, §6

Beta vulgaris [4] = test: as above; parameters: key: A rating of 0 indicates growth as untreated control; a rating of 9 indicates death; details: pre; 1000 g/ha; assessed visually twenty days after spraying
Description: as §1, §2, §3, §4, §5, §6

Sinapsis alba [5] = test: as above; parameters: key: A rating of 0 indicates growth as untreated control; a rating of 9 indicates death; details: pre; 1000 g/ha; assessed visually twenty days after spraying
Description: as §1, §2, §3, §4, §5, §6

Echinochloa crus-galli [6] = test: as above; parameters: key: A rating of 0 indicates growth as untreated control; a rating of 9 indicates death; details: pre; 1000 g/ha; assessed visually twenty days after spraying
Description: as §1, §2, §3, §4, §5, §6

Oryza sativa [7] = test: as above; parameters: key: A rating of 0 indicates growth as untreated control; a rating of 9 indicates death; details: pre; 1000 g/ha; assessed visually twenty days after spraying
Description: as §1, §2, §3, §4, §5, §6

Linum usitatissimum [8] = test: as above; parameters: key: A rating of 0 indicates growth as untreated control; a rating of 9 indicates death; details: pre; 1000 g/ha; assessed visually twenty days after spraying
Description: as §1, §2, §3, §4, §5, §6

Zea mays [9] = test: as above; parameters: key: A rating of 0 indicates growth as untreated control; a rating of 9 indicates death; details: pre; 1000 g/ha; assessed visually twenty days after spraying
Description: as §1, §2, §3, §4, §5, §6

Avena fatua [10] = test: Herbicidal activity, postemergence test (Example 66); parameters: key: A rating of 0 indicates growth as untreated control; a rating of 9 indicates death; details: post; 1000 g/ha; assessed visually twenty days after spraying
Description: as §1, §2, §3, §4, §5, §6

Beta vulgaris [11] = test: as above; parameters: key: A rating of 0 indicates growth as untreated control; a rating of 9 indicates death; details: post; 1000 g/ha; assessed visually twenty days after spraying
Description: as §1, §2, §3, §4, §5, §6

Sinapsis alba [12] = test: as above; parameters: key: A rating of 0 indicates growth as untreated control; a rating of 9 indicates death; details: post; 1000 g/ha; assessed visually twenty days after spraying
Description: as §1, §2, §3, §4, §5, §6

Echinochloa crus-galli [13] = test: as above; parameters: key: A rating of 0 indicates growth as untreated control; a rating of 9 indicates death; details: post; 1000 g/ha; assessed visually twenty days after spraying
Description: as §1, §2, §3, §4, §5, §6

Oryza sativa [14] = test: as above; parameters: key: A rating of 0 indicates growth as untreated control; a rating of 9 indicates death; details: post; 1000 g/ha; assessed visually twenty days after spraying
Description: as §1, §2, §3, §4, §5, §6

Linum usitatissimum [15] = test: as above; parameters: key: A rating of 0 indicates growth as untreated control; a rating of 9 indicates death; details: post; 1000 g/ha; assessed visually twenty days after spraying
Description: as §1, §2, §3, §4, §5, §6

Zea mays [16] = test: as above; parameters: key: A rating of 0 indicates growth as untreated control; a rating of 9 indicates death; details: post; 1000 g/ha; assessed visually twenty days after spraying
Description: as §1, §2, §3, §4, §5, §6

Structure (SMILES)	herbicidal effects on a 0-9 scale, GLXMA (Glycine max [1])	herbicidal effects on a 0-9 scale, GLXMA (Glycine max [2])	herbicidal effects on a 0-9 scale, AVEFA (Avena fatua [3])	herbicidal effects on a 0-9 scale, BEAVA (Beta vulgaris [4])	herbicidal effects on a 0-9 scale, SINAL (Sinapsis alba [5])	herbicidal effects on a 0-9 scale, ECHCG (Echinochloa crus-galli [6])	herbicidal effects on a 0-9 scale, ORYSA (Oryza sativa [7])	herbicidal effects on a 0-9 scale, LIUUT (Linum usitatissimum [8])	herbicidal effects on a 0-9 scale, ZEAMX (Zea mays [9])	herbicidal effects on a 0-9 scale, AVEFA (Avena fatua [10])	herbicidal effects on a 0-9 scale, BEAVA (Beta vulgaris [11])	herbicidal effects on a 0-9 scale, SINAL (Sinapsis alba [12])	herbicidal effects on a 0-9 scale, ECHCG (Echinochloa crus-galli [13])	herbicidal effects on a 0-9 scale, ORYSA (Oryza sativa [14])	herbicidal effects on a 0-9 scale, LIUUT (Linum usitatissimum [15])	herbicidal effects on a 0-9 scale, ZEAMX (Zea mays [16])
CC(C)Cc1nsc(C(=O)NCc2cccs2)n1 [Example 11]	2	0	0	0	0	0	0	0	0	0	4	7	2	0	2	0
CC(C)Cc1nsc(C(=O)N[C@@H](C)c2ccccc2)n1 [Example 13, (S)-3-Isobutyl-[1,2,4]thiadiazole-5-carboxylic acid, 1-(phenylethyl)amide]	5	0	0	5	4	2	0	0	0	5	9	8	8	0	7	2
O=C(NCc1cccs1)c1nc(-c2ccc(F)cc2)ns1 [Example 14]	2	0	0	0	0	0	0	0	0	0	8	8	2	0	5	0
C[C@H](NC(=O)c1nc(-c2ccc(F)cc2)ns1)c1ccccc1 [Example 16, (S)-3-(4-Fluorophenyl)-[1,2,4]thiadiazole-5-carboxylic acid, 1-(phenylethyl)amide]	6	0	0	0	0	0	0	0	0	7	9	9	8	2	7	0
